Source: publication PMC6269904, “Two New Monoterpene Glycosides from Qing Shan Lu Shui Tea with Inhibitory Effects on Leukocyte-Type 12-Lipoxygenase Activity” (Molecules, 2013)

Experiments:
[1] = molecular target: T1, leukocyte-type 12-lipoxygenase (leukocyte-type 12-LOX), porcine (Sus scrofa, UniProt P16469); test: RP-HPLC of HETE products after reduction; format: biochemical
T1 construct: gene ALOX15; partially purified from J774A.1 cells overexpressing the porcine enzyme
T1 sequence (P16469 1-663): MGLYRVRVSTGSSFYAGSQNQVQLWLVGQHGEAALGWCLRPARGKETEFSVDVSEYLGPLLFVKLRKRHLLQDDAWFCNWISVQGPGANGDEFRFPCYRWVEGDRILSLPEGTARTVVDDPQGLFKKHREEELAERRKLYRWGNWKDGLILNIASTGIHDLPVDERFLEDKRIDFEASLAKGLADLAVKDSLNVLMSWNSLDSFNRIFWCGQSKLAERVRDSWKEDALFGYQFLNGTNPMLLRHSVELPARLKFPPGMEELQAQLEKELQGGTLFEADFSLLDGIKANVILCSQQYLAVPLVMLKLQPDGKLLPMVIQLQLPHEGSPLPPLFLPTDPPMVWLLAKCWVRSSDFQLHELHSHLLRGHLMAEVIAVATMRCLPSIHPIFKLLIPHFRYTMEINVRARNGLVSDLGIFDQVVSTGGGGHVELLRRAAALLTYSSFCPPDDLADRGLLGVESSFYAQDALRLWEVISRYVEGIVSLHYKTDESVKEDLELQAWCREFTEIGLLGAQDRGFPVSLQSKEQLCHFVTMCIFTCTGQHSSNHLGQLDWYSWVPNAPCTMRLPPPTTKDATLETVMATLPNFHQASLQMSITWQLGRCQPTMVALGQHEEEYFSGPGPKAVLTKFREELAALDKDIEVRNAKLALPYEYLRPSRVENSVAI

[2] = molecular target: T1, leukocyte-type 12-lipoxygenase (leukocyte-type 12-LOX), porcine; test: RP-HPLC of HETE products ([…] nm) after reduction; format: biochemical; details: 25 μM arachidonic acid, 100 mM Tris-HCl pH 7.4, 30 °C, 5 min preincubation; partially purified enzyme

| Structure (SMILES) | IC50 [1] | no inhibition [2] |
| --- | --- | --- |
| C/C(=C\CO[C@@H]1O[C@H](CO)[C@@H](OC(=O)/C=C/c2ccc(O)cc2)[C@H](O[C@@H]2O[C@@H](C)[C@H](O)[C@@H](O)[C@H]2O)[C@H]1O)C/C=C/C(C)(C)OO [compound 1, (2E,5E)-7-hydroperoxy-3,7-dimethyl-2,5-octadienyl-O-(α-L-rhamnopyranosyl)-(1″→3′)-(4′″-O-trans-p-coumaroyl)-β-D-glucopyranoside] | 1700 nM |  |
| O=C(O)/C=C/c1ccc(O)cc1 [p-coumaric acid] |  | showed no inhibition on leukocyte-type 12-LOX activity |
| C/C(=C\CO[C@@H]1O[C@H](CO)[C@@H](OC(=O)/C=C\c2ccc(O)cc2)[C@H](O[C@@H]2O[C@@H](C)[C@H](O)[C@@H](O)[C@H]2O)[C@H]1O)C/C=C/C(C)(C)OO [compound 2, (2E,5E)-7-hydroperoxy-3,7-dimethyl-2,5-octadienyl-O-(α-L-rhamnopyranosyl)-(1′′→3′)-(4′′′-O-cis-p-coumaroyl)-β-D-glucopyranoside] | 700 nM |  |
